This passage reports inhibition and IC50 results from patent publication US6875760B2 (Novo Nordisk A/S, priority 1999, dated 2005).

In the assay the target is T1, cloned human glucagon receptor (Homo sapiens, UniProt P47871).
T1 construct: expressed in transfected cells; plasma membrane preparation
The assay is described as follows: Glucagon Binding Assay (II). Conditions: for inhibition at 1 µM: screened at 1 μM, library compounds, read-out: displacement of the glucagon tracer when screened at 1 μM concentration in the glucagon binding assay II; for pIC50: plasma membranes of BHK cells expressing the receptor, read-out: Glu Bd Assay (II) IC50. As for the experimental part:
Binding of compounds to the glucagon receptor was determined in a competition binding assay using the cloned human glucagon receptor.
The receptor inserted in the pLJ6′ expression vector using EcoRI/SSt1 restriction sites (Lok et al.) was expressed in a baby hamster kidney cell line (A3 BHK 570-25).
The homogenate was resuspended and centrifuged again. The final precipitate containing the plasma membranes was suspended in buffer and stored at −80° C. until use.
Binding assays were carried out in duplicate in polypropylene tubes or microtiter plates. The buffer used in this assay was 50 mM HEPES pH 7.4 containing 5 mM EGTA, 5 mM MgCl2 and 0.005% Tween 20. Sample (glucagon (Bachem CA) or test compounds) was added to each tube or well. Tracer (˜25.000 cpm) was diluted in buffer and was added to each tube or well. 0.5 mg freshly thawed plasma membrane protein diluted in buffer was then added in aliquots to each tube or well. Tubes or plates were incubated at 37° C. for 1 hour. Non-specific binding was determined with 10^−7 M of glucagon. Bound tracer and unbound tracer were then separated by vacuum filtration. The tubes or wells were washed twice with 0.01% Triton X-100 buffer. Scintillation fluid was added to the plates and radioactivity was quantified using a scintillation counter.

pIC50: −log10 of the molar value. Where only a bound is given, the exact number is not on record here.

T1 sequence (P47871 26-477): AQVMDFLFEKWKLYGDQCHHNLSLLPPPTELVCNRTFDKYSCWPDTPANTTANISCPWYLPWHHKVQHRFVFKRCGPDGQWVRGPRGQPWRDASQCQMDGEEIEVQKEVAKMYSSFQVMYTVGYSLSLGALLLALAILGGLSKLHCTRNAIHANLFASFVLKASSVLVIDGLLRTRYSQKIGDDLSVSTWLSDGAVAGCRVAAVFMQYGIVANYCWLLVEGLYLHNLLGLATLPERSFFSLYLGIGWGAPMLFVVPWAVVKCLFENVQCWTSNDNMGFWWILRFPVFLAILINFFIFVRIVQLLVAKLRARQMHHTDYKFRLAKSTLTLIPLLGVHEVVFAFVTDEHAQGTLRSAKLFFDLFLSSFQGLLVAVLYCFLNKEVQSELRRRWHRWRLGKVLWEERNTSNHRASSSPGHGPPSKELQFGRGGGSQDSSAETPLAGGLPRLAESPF

Consider `CCCCOc1ccc(NC(=O)N(Cc2ccc(C(=O)NCCC(=O)O)cc2)Cc2ccc(C(F)(F)F)cc2)cc1` [Example 119, 3-{4-[1-(4-Trifluoromethylbenzyl)-3-(4-butoxyphenyl)ureidomethyl]benzoylamino)propionic acid], for which the inhibition at 1 µM was greater than 50%.

With `O=C(O)CCNC(=O)c1ccc(CN(Cc2ccc(C(F)(F)F)cc2)C(=O)Nc2ccc(SC(F)(F)F)cc2)cc1` [Example 120, 3-{4-[1-(4-Trifluoromethylbenzyl)-3-(4-trifluoromethylsulfanylphenyl)ureidomethyl]benzoylamino)propionic acid], the inhibition at 1 µM was greater than 50%.

With `COc1cc(CN(Cc2ccc(C(=O)NCCC(=O)O)cc2)C(=O)Nc2ccc(C)cc2)ccc1O` [Example 121, 3-{4-[1-(4-Hydroxy-3-methoxybenzyl)-3-(4-methylphenyl)ureidomethyl]benzoylamino)propionic acid], the inhibition at 1 µM is greater than 50%.

On to `COc1cc(CN(Cc2ccc(C(=O)NCCC(=O)O)cc2)C(=O)Nc2ccc3c(c2)OCO3)ccc1O` [Example 122, 3-{4-[1-(4-Hydroxy-3-methoxybenzyl)-3-(3,4-methylenedioxyphenyl)ureidomethyl]benzoylamino)propionic acid], for which the inhibition at 1 µM was greater than 50%.

As for `O=C(O)CCNC(=O)c1ccc(CN(CC2(O)CCCCC2)C(=O)Nc2ccc3c(c2)OCO3)cc1` [Example 123, 3-{4-[1-(1-Hydroxycyclohexylmethyl)-3-(3,4-methylenedioxyphenyl)ureidomethyl]benzoylamino)propionic acid], the inhibition at 1 µM was greater than 50%. On the same count and under the same terms, to `O=C(O)CCNC(=O)c1ccc(CN(Cc2ccccc2OC(F)(F)F)C(=O)Nc2ccc3ccccc3c2)s1` [Example 124, 3-{5-[1-(2-Trifluoromethoxybenzyl)-3-naphthalene-2-ylureidomethyl]thiophene-2-carbonylamino)propionic acid] belongs greater than 50%; to `CCCCOc1ccc(NC(=O)N(Cc2ccc(C(=O)NCCC(=O)O)s2)Cc2ccccc2OC(F)(F)F)cc1` [Example 125, 3-{5-[1-(2-Trifluoromethoxybenzyl)-3-(4-butoxyphenyl)ureidomethyl]thiophene-2-carbonylamino)propionic acid], greater than 50%. Regarding `O=C(O)CCNC(=O)c1ccc(CN(Cc2ccccc2OC(F)(F)F)C(=O)Nc2ccc(SC(F)(F)F)cc2)s1` [Example 126, 3-{5-[1-(2-Trifluoromethoxybenzyl)-3-(4-trifluoromethylsulfanylphenyl)ureidomethyl]thiophene-2-carbonylamino)propionic acid], the inhibition at 1 µM was greater than 50%.

For the compound `CC(C)(C)c1ccc(CN(Cc2ccc(C(=O)NCCC(=O)O)s2)C(=O)Nc2ccc3ccccc3c2)cc1` [Example 127, 3-{5-[1-(4-tert-Butylbenzyl)-3-naphthalene-2-ylureidomethyl]thiophene-2-carbonylamino)propionic acid], the inhibition at 1 µM was greater than 50%. With `O=C(O)CCNC(=O)c1ccc(CN(Cc2ccc(C(F)(F)F)cc2)C(=O)Nc2ccc3ccccc3c2)s1` [Example 128, 3-{5-[1-(4-Trifluoromethylbenzyl)-3-naphthalene-2-ylureidomethyl]thiophene-2-carbonylamino)propionic acid], the inhibition at 1 µM was greater than 50%. For `CCCCOc1ccc(NC(=O)N(Cc2ccc(C(C)(C)C)cc2)Cc2ccc(C(=O)NCCC(=O)O)s2)cc1` [Example 129, 3-{5-[1-(4-tert-Butylbenzyl)-3-(4-butoxyphenyl)ureidomethyl]thiophene-2-carbonylamino)propionic acid], the inhibition at 1 µM is greater than 50%.

On to `CC(C)(C)c1ccc(CN(Cc2ccc(C(=O)NCCC(=O)O)s2)C(=O)Nc2ccc(SC(F)(F)F)cc2)cc1` [Example 130, 3-{5-[1-(4-tert-Butylbenzyl)-3-(4-trifluoromethylsulfanylphenyl)ureidomethyl]thiophene-2-carbonylamino)propionic acid], for which the inhibition at 1 µM was greater than 50%. The same measure, in the same setting: for `O=C(O)CCNC(=O)c1ccc(CN(Cc2ccc(C(F)(F)F)cc2)C(=O)Nc2ccc(SC(F)(F)F)cc2)s1` [Example 131, 3-{5-[1-(4-Trifluoromethylbenzyl)-3-(4-trifluoromethylsulfanylphenyl)ureidomethyl]thiophene-2-carbonylamino)propionic acid] the value was greater than 50%; for `CC(C)(C)C1CCC(N(Cc2ccc(C(=O)NCCC(=O)O)cc2)C(=O)NC2CC2c2ccccc2)CC1` (centres unmarked) [Example 132, 3-{4-[1-(4-tert-Butylcyclohexyl)-3-(2-phenylcyclopropyl)ureidomethyl]benzoylamino)propionic acid], greater than 50%. Still for that read-out and setting: to `CC(C)(C)C1CCC(N(Cc2ccc(C(=O)NCCC(=O)O)cc2)C(=O)Nc2ccc(Br)cc2)CC1` (centres unmarked) [Example 133, 3-{4-[3-(4-Bromophenyl)-1-(4-tert-butylcyclohexyl)ureidomethyl]benzoylamino)propionic acid] belongs greater than 50%. Still for that read-out and setting: for `CC(C)(C)C1CCC(N(Cc2cccc(C(=O)NCCC(=O)O)c2)C(=O)Nc2ccc(OC(F)(F)F)cc2)CC1` (centres unmarked) [Example 134, 3-{3-[1-(4-tert-Butylcyclohexyl)-3-(4-trifluoromethoxyphenyl)ureidomethyl]benzoylamino)propionic acid] the value was greater than 50%; for `CC(C)(C)C1CCC(N(Cc2cccc(C(=O)NCCC(=O)O)c2)C(=O)Nc2cc(Cl)cc(Cl)c2)CC1` (centres unmarked) [Example 135, 3-{3-[1-(4-tert-Butylcyclohexyl)-3-(3,5-dichlorophenyl)ureidomethyl]benzoylamino)propionic acid], greater than 50%.

On to `O=C(O)CCNC(=O)c1ccc(CN(C(=O)Nc2ccc(OC(F)(F)F)cc2)C2Cc3ccccc3C2)cc1` [Example 137, 3-{4-[1-(1-Indan-2-yl)-3-(4-trifluoromethoxyphenyl)ureidomethyl]benzoylamino)propionic acid], for which the pIC50 is 6.44. Same read-out and setting: to `O=C(O)CCNC(=O)c1ccc(CN(C(=O)Nc2cc(Cl)cc(Cl)c2)C2Cc3ccccc3C2)cc1` [Example 138, 3-{4-[1-Indan-2-yl-3-(3,5-dichlorophenyl)ureidomethyl]benzoylamino}propionic acid] belongs 6.20; to `C[C@@H](C1CCCCC1)N(Cc1ccc(C(=O)NCCC(=O)O)cc1)C(=O)Nc1ccc(OC(F)(F)F)cc1` [Example 139, 3-{4-[1-((1S)-1-Cyclohexylethyl)-3-(4-trifluoromethoxyphenyl)ureidomethyl]benzoylamino)propionic acid], 6.42. The same measure, in the same setting: to `C[C@@H](C1CCCCC1)N(Cc1ccc(C(=O)NCCC(=O)O)cc1)C(=O)Nc1cc(Cl)cc(Cl)c1` [Example 140, 3-{4-[1-((1S)-1-Cyclohexylethyl)-3-(3,5-dichlorophenyl)ureidomethyl]benzoylamino)propionic acid] belongs 6.24.

`O=C(O)CCNC(=O)c1ccc(CN(CCC(c2ccccc2)c2ccccc2)Cc2ccc(C(F)(F)F)cc2)cc1` [Example 141, 3-(4-{[(3,3-Diphenylpropyl)-(4-trifluoromethylbenzyl)amino]methyl}benzoylamino)propionic acid]: the inhibition at 1 µM is greater than 50%. Still for that read-out and setting: to `O=C(O)CCNC(=O)c1ccc(CN(CCC(c2ccccc2)c2ccccc2)Cc2ccc(C(F)(F)F)cc2)s1` [Example 142, 3-(5-{[(3,3-Diphenylpropyl)-(4-trifluoromethylbenzyl)amino]methyl}thiophene-2-carbonylamino)propionic acid] belongs greater than 50%; to `O=C(O)CCNC(=O)c1ccc(CN(Cc2ccccc2Cl)CC(c2ccccc2)c2ccccc2)cc1` [Example 143, 3-(4-{[(2,2-Diphenylethyl)-(2-chlorobenzyl)amino]methyl}benzoylamino)propionic acid], greater than 50%. Same read-out and setting: to `O=C(O)CCNC(=O)c1ccc(CN(Cc2ccccc2Cl)CC(c2ccccc2)c2ccccc2)s1` [Example 144, 3-(5-{[(2,2-Diphenylethyl)-(2-chlorobenzyl)amino]methyl}thiophene-2-carbonylamino)propionic acid] belongs greater than 50%; to `O=C(O)CCNC(=O)c1ccc(CN(CCc2ccccc2)Cc2ccc(Oc3ccccc3)cc2)cc1` [Example 145, 3-(4-{[(2-Phenylethyl)-(4-phenoxybenzyl)amino]methyl}benzoylamino)propionic acid], greater than 50%. As for `O=C(O)CCNC(=O)c1ccc(CN(CCc2ccccc2)Cc2ccc(Oc3ccccc3)cc2)s1` [Example 146, 3-(5-{[(2-Phenylethyl)-(4-phenoxybenzyl)amino]methyl}thiophene-2-carbonylamino)propionic acid], the inhibition at 1 µM is greater than 50%. Regarding `Cc1ccc(CN(CCc2ccc(Cl)cc2Cl)Cc2ccc(C(=O)NCCC(=O)O)s2)cc1` [Example 147, 3-(5-{[(2,4-Dichlorophenylethyl)-(4-methylbenzyl)amino]methyl}thiophene-2-carbonylamino)propionic acid], the inhibition at 1 µM was greater than 50%. On the same count and under the same terms, for `O=C(O)CCNC(=O)c1ccc(CN(Cc2ccc(Cl)cc2)Cc2ccc(Cl)cc2)s1` [Example 148, 3-(5-{[Bis-(4-chlorobenzyl)amino]methyl}thiophene-2-carbonylamino)propionic acid] the value was greater than 50%.

By pIC50 is commonly meant the IC50 on a negative log10 scale, so that one unit is a factor of ten.
